Data set [1] concerns Trichophyton asteroides. The data set can be described thus: Antimycotic test against Trichophyton asteroides (in vitro, Sabouraud's dextrose broth). Format: cell-based. To be noted: read-out: Minimum Inhibitory Concentration (MIC). The source says: Sabouraud's dextrose broth* was used as culture medium.
Data set [2] has as its system Candida albicans KE-2. The data set can be described thus: Test on inhibition against formation of the pseudohyphae in Candida albicans. Format: cell-based. The note with it: KE2; Candida albicans KE-2, 1×10^6 cells/ml, Eagle broth + 20% bovine serum, 37° C., 18 hours; read-out: Inhibitory concentration against pseudohyphae formation. How it is done:
To Eagle MEN broth (Nissan 2, Nissui Seiyaku Co., Ltd.) was added 20% bovine serum and inoculated Candida albicans KE-2 yeast cells at rate of 1×10^6 cells/ml (final inoculum size), and each test compound was added thereto in two-fold serial dilution method. After termination of cultivation at 37° C. for 18 hours, each organism of the serial dilution was smeared and fixed on a slide glass and stained by Giemsa's staining, and occurrence of the pseudohyphae was observed under a microscope. Minimum concentration which could inhibit the formation of pseudohyphae was regarded as the inhibitory concentration of the compound against pseudohyphae formation.

In data set [3] the test system is Candida albicans KE-2. Nature of the data set: Therapeutic effect against experimental candidasis in mice. Format: in vivo, Jcl-ICR female mice. The note with it: 15th day from infection; 25 mg/Kg oral, twice per day for 5 days; 5×10^5 Candida albicans KE-2 cells i.v.; eight mice; control 0. Here is the method: Candida albicans KE-2 was cultured in a Sabouraud's dextrose agar at 28° C. for 48 hours, and the resulting culture was suspended in the Sabouraud's dextrose broth. The resulting cells (5×10^5) were intravenously administered at the tail of Jcl-ICR female mice (4 weeks age, body weight: 18-20 g). Each test compound suspended in 2% gum-arabic was orally administered at a dose of 25 mg/Kg twice per day for 5 days; on the first day, the test compound is administered twice, i.e., immediately after the infection and 2 hours later; on the second day or later, 24 hours after the administration of the previous day respectively. After the infection, no test compound was administered to a control group. Eight mice were employed in the control group and the test groups to which the test compound was administered The therapuetic effect was evaluated on the survival rate at the 15th day from the day of infection; the result is shown below.

For data set [4] the following is noted: in vivo, po; cited from earlier work.

Converted amounts (≈) assume the structure as drawn.

As for `CC1(C)OC(c2ccc(Cl)cc2Cl)C(Cn2cncn2)(c2ccc(Cl)cc2)O1` (stereo not shown) [Compound 39, 4-(4-chlorophenyl)-5-(2,4-dichlorophenyl)-2,2-dimethyl-4-(1H-1,2,4-triazol-1-yl)methyl-1,3-dioxolane], in data set [1], the MIC came out at 0.8 µg/mL (≈ 1.82 µM). In addition, in data set [2], the minimal effective concentration is 5 µg/mL. Take `Cc1ccc(C2OC(=O)OC2(Cn2cncn2)c2ccc(C)cc2)cc1` (stereo not shown) [Compound 11]: in data set [2], the minimal effective concentration is 1.25 µg/mL.

For `O=C1OC(c2ccccc2)C(Cn2ccnc2)(c2ccc(Cl)cc2Cl)O1` (stereo not shown) [Compound 23], the MIC in data set [1] is 0.1 µg/mL (≈ 0.257 µM). Moreover, the minimal effective concentration in data set [2] is 0.16 µg/mL.

As for `O=C1OC(c2ccccc2)C(Cn2cncn2)(c2ccc(Cl)cc2Cl)O1` (stereo not shown) [Compound 3], the MIC in data set [1] came to 0.1 µg/mL (≈ 0.256 µM).

In the case of `O=C1OC(c2ccc(Cl)cc2Cl)C(Cn2cncn2)(c2ccc(Cl)cc2)O1` (stereo not shown) [Compound 5], in data set [2], the minimal effective concentration came out at 0.63 µg/mL. The molecule further registered a Survival rate in data set [3] of 100%. Take `O=S1OC(c2ccc(Cl)cc2Cl)C(Cn2cncn2)(c2ccc(Cl)cc2)O1` (single isomer, unassigned) [Compound 27B]: in data set [1], the MIC stood at 0.1 µg/mL (≈ 0.225 µM). Also, the minimal effective concentration in data set [2] stood at 0.02 µg/mL. In data set [3], this molecule came in with a Survival rate of 75%.

In the case of `O=C1OC(c2ccc(Cl)cc2)C(Cn2cncn2)(c2ccc(Cl)cc2Cl)O1` (single isomer, unassigned) [Compound 19], the MIC in data set [1] was 0.2 µg/mL (≈ 0.471 µM). Moreover, the minimal effective concentration in data set [2] stood at 0.04 µg/mL. The Survival rate in data set [3] turned out to be 86%. Take `Fc1ccc(C2OCOC2(Cn2cncn2)c2ccc(Cl)cc2Cl)cc1` (stereo not shown) [Compound 34]: the MIC in data set [1] stood at 0.1 µg/mL (≈ 0.254 µM). The minimal effective concentration in data set [2] is 0.31 µg/mL. `CCCC1OC(=O)OC1(Cn1cncn1)c1ccc(Cl)cc1Cl` (stereo not shown) [Compound 12]: the MIC in data set [1] came out at 1.6 µg/mL (≈ 4.49 µM). On the same count and under the same terms, as for `O=C1OC(c2ccc(F)cc2)C(Cn2cncn2)(c2ccc(F)cc2)O1` (stereo not shown) [Compound 8], the figure is 3.1 µg/mL (≈ 8.68 µM); as for `CCCCC1OC(=O)OC1(Cn1cncn1)c1ccc(Cl)cc1Cl` (stereo not shown) [Compound 4], 0.2 µg/mL (≈ 0.54 µM). Regarding `Cc1ccc(C2OC(=O)OC2(Cn2cncn2)c2ccccc2Cl)cc1` (stereo not shown) [Compound 15], the MIC in data set [1] worked out at 3.1 µg/mL (≈ 8.38 µM). For the same molecule, in data set [2], the minimal effective concentration stood at 0.63 µg/mL. Take `O=C1OC(c2ccc(F)cc2)C(Cn2cncn2)(c2ccc(Cl)cc2Cl)O1` (stereo not shown) [Compound 1, 4-(2,4-dichlorophenyl)-5-(4-fluorophenyl)-2-oxo-4-(1H-1,2,4-triazol-1-yl)methyl-1,3-dioxolane]: the MIC in data set [1] turned out to be 0.1 µg/mL (≈ 0.245 µM). Moreover, the minimal effective concentration in data set [2] was 0.31 µg/mL. The same molecule showed a Survival rate in data set [3] of 87.5%. Taken in the same sequence, the figures for `CC(C)C1OC(=O)OC1(Cn1cncn1)c1ccc(Cl)cc1Cl` (stereo not shown) [Compound 2] were 3.1 µg/mL (≈ 8.7 µM), 0.63 µg/mL and 100%. On to `CC(=O)N1CCN(c2ccc(OCC3COC(Cn4ccnc4)(c4ccc(Cl)cc4Cl)O3)cc2)CC1` (stereo not shown) [Ketoconazole], for which the adverse reactions entry in data set [4] was “hepatic dysfunction”. With `O=C1OC(c2ccccc2Cl)C(Cn2cncn2)(c2ccccc2Cl)O1` (stereo not shown) [Compound 7], in data set [2], the minimal effective concentration was 0.31 µg/mL. In the case of `CCCC1OCOC1(Cn1cncn1)c1ccc(Cl)cc1` (stereo not shown) [Compound 33], in data set [1], the MIC came out at 0.2 µg/mL (≈ 0.65 µM). For the same molecule, the minimal effective concentration in data set [2] was 0.16 µg/mL.

These data come from patent US4612322A, “Azole type dioxolane derivatives” (Shionogi & Co., Ltd., priority 1983, dated 1986).
